Source: patent publication US6867305B2, “Synthesis of epothilones, intermediates thereto and analogues thereof” (Sloan-Kettering Institute for Cancer Research, priority 1996, dated 2005)
Where “and” joins values, the source holds several entries; their conditions need not be identical. Equal values may be shown once. Entries after “also recorded” stand apart in the source; their conditions may differ. Read-outs that look alike come from different tables or passages of the source.

What was measured:
[1] = test system: CCRF-CEM human T-cell acute lymphoblastic leukemia cells; assay: Tumor cell growth inhibition in vitro (XTT, 72 h); format: cell-based; conditions: CCRF-CEM; for IC50: 72 h incubation
Description: (§1) The fresh medium containing each drug was replenished every 7-14 days. […] In each case ,the drug-exposed cells were resuspended in fresh media for a minimum of 4 days before the experiments for the cell-growth inhibition was carried out.
(§2) The cells were cultured at an initial density of 2-5×10^4 cells per ml. They were maintained in a 5% CO2-humidified atmosphere at 37° C. in RPMI mediun 1640 (GIBCO/BRL) containing penicillin (100 units/ml), streptomycin (100 μg/ml) (GIBCO/BRL), and 5% heat-inactivated fetal bovine serum. For solid tumor cells growing in a monolayer (such as MCF-7/Adr), cytotoxicitiy of the drug was determined in 96-well microtiter plates by using the sulforhodamine B method as described by Skehan et al (23) for measuring the cellular protein content. For cells that were grown in suspension (such as CCRF-CEM and its sublines), cytotoxicitiy was measured by using the 2,-3-bis(2-methoxy-4-nitro-5-sulfophenyl)-5carboxanilide)-2H terazodium hydroxide (XTT)-microculture tetrazonium method (24) in duplicate in 96-well microtiter plates. For both methods, the absorbance of each well was measured with a microplate reader (EL-340, Bio-Tek, Burlington, Vt.). Each run entailed six or seven concentrations of the tested drugs. Dose-effect relationship data were analyzed with the median-effect plot (25) by using a previously described computer program (26).

[2] = test system: CCRF-CEM/Taxol (paclitaxel-resistant subline); assay: Tumor cell growth inhibition in vitro (XTT, 72 h); format: cell-based, human; conditions: for cross-resistance (fold of resistance vs parent cell line): CCRF-CEM/Taxol vs CCRF-CEM; for IC50: Homo sapiens, CCRF-CEM, 72 h
Description: as §1, §2

[3] = test system: CCRF-CEM/VBL100 (vinblastine-resistant subline); assay: Tumor cell growth inhibition in vitro (XTT, 72 h); format: cell-based, human; conditions: for cross-resistance (fold of resistance vs parent cell line): CCRF-CEM/VBL100 vs CCRF-CEM
Description: as §1, §2

[4] = test system: CCRF-CEM/VM1 (teniposide-resistant subline); assay: Tumor cell growth inhibition in vitro (XTT, 72 h); format: cell-based, human; conditions: for cross-resistance (fold of resistance vs parent cell line): CCRF-CEM/VM1 vs CCRF-CEM; for IC50: Homo sapiens
Description: as §1, §2

[5] = test system: HL-60 human promyelocytic leukemia; assay: Tumor cell growth inhibition in vitro; format: cell-based
Description: as §2, with “They were maintained in a 5% CO2-humidified atmosphere at 37° C. in RPMI mediun 1640 (GIBCO/BRL) containing penicillin (100 units/ml), streptomycin (100 μg/ml) (GIBCO/BRL), and 5% heat-inactivated fetal bovine serum.” left out

[6] = test system: HT-29 human colon adenocarcinoma; assay: Tumor cell growth inhibition in vitro; format: cell-based
Description: as §2, with “They were maintained in a 5% CO2-humidified atmosphere at 37° C. in RPMI mediun 1640 (GIBCO/BRL) containing penicillin (100 units/ml), streptomycin (100 μg/ml) (GIBCO/BRL), and 5% heat-inactivated fetal bovine serum.” left out

[7] = test system: K562 human chronic myeloblastic leukemia; assay: Tumor cell growth inhibition in vitro; format: cell-based
Description: as §2, with “They were maintained in a 5% CO2-humidified atmosphere at 37° C. in RPMI mediun 1640 (GIBCO/BRL) containing penicillin (100 units/ml), streptomycin (100 μg/ml) (GIBCO/BRL), and 5% heat-inactivated fetal bovine serum.” left out

[8] = test system: MCF-7 human mammary adenocarcinoma; assay: Tumor cell growth inhibition in vitro; format: cell-based
Description: as §2, with “They were maintained in a 5% CO2-humidified atmosphere at 37° C. in RPMI mediun 1640 (GIBCO/BRL) containing penicillin (100 units/ml), streptomycin (100 μg/ml) (GIBCO/BRL), and 5% heat-inactivated fetal bovine serum.” left out

[9] = test system: MX-1 human mammary carcinoma; assay: Tumor cell growth inhibition in vitro; format: cell-based; conditions: Homo sapiens, MX1
Description: as §2, with “They were maintained in a 5% CO2-humidified atmosphere at 37° C. in RPMI mediun 1640 (GIBCO/BRL) containing penicillin (100 units/ml), streptomycin (100 μg/ml) (GIBCO/BRL), and 5% heat-inactivated fetal bovine serum.” left out

[10] = test system: PC-3 human prostate adenocarcinoma; assay: Tumor cell growth inhibition in vitro; format: cell-based
Description: as §2, with “They were maintained in a 5% CO2-humidified atmosphere at 37° C. in RPMI mediun 1640 (GIBCO/BRL) containing penicillin (100 units/ml), streptomycin (100 μg/ml) (GIBCO/BRL), and 5% heat-inactivated fetal bovine serum.” left out

[11] = test system: SK-OV-3 human ovary adenocarcinoma; assay: Tumor cell growth inhibition in vitro; format: cell-based
Description: as §2, with “They were maintained in a 5% CO2-humidified atmosphere at 37° C. in RPMI mediun 1640 (GIBCO/BRL) containing penicillin (100 units/ml), streptomycin (100 μg/ml) (GIBCO/BRL), and 5% heat-inactivated fetal bovine serum.” left out

[12] = test system: K562 chronic myelocytic leukemia xenograft; assay: Human tumor xenograft in nude mice; format: in vivo; conditions: for Lowest Average Tumor Size (T/C) / Tumor Disappearance: Taxol 20 mg/kg, Q2Dx5, 6-hr i.v. infusion
Description: FIG. 34 depicts tumor size in nude mice bearing human leukemia […] tumor following 6 mg/kg C-15-Aza-EpoB, Q2D×6 and 30 mg/kg dEpoF, Q2ED×6 (i.v. infusion […].). K562 tumor cells (1×10^7 in 0.2 mL) were inoculated to nude mice on day 0. Mice were treated with 6 mg/kg aza-EpoB, 6 h-i.v. infusion on days 20, 22, 24, 26, 28 and 30 (Δ, n=3). The same group of mice were then treated with 30 mg/kg dEpoF, 6 h-i.v. infusion on days 42, 44, 46, 48, 52, and 54 (Δ, n=3). […] The control mice (∘, n=3) received vehicle only.
K562 tumor cells (1×10^7, in 0.2 ml/mouse) were implanted s.c. on day 0. […] The control mice (∘, n=4) received vehicle, Cremophor-ethanol (1:1), only. The vertical bars indicate mean tumor size in mm^3±S.E.
Depending on the tumor type, treatment started on day 10 to day 21 when subcutaneous tumor size reached 35-200 mm^3, except otherwise indicated. Tumor size and body-weight were recorded every other day (Q2D) and, for humane reasons, the animals were sacrificed when tumor size reached ≧10% of body-weight. Each group, including untreated control, consisted of 3-5 animals unless otherwise indicated.
Athymic nude mice bearing the nu/nu gene were used for all human tumor xenografts. Outbred, Swiss-background mice were obtained from Charles River Laboratories. Male mice 8 weeks or older weighing 22 g and up were used for most experiments. The drug was administered via the tail vein for 6 hr.-i.v. infusion. Each individual mouse was confined in a perforated Falcon polypropylene tube restrainer for drug administration. Tumor volume was assessed by measuring length×width×height (or width) using a caliper. The programmable Harvard PHD2000 syringe pump (Harvard Apparatus) with multi-track was used for i.v. infusion. […] All animal studies were conducted in accordance with the guidelines of the National Institutes of Health “Guide for the Care and Use of Animals” and the protocol approved by the Memorial Sloan-Kettering Cancer Center's Institutional Animal Care and Use Committee. In keeping with the policy of this committee for the humane treatment of tumor-bearing animals, mice were euthanized when tumors reached ≧10% of their total body weight.
Human tumor cells (5×10^6) or tumor tissue (30-50 mg) were implanted s.c. flank in nu/nu mice (Charles River Laboratories, Wilmington, Mass.). When tumor grew to a specified size, treatment was started by every-other day×5 with 6 hr i.v.-infusion, unless otherwise indicated. Tumor volume was measured with calipers in three dimensions (length×width×height or width). Body-weight changes and lethality were monitored every other day.

UL-3-B/Taxol [13] = test system: UL-3-B/Taxol
UL-3-B/Taxol [14] = assay: cells; conditions: Homo sapiens
[15] = Homo sapiens, MCF7, MCF-7, read-out: IC50
[16] = K562, i.v. infusion (dEpoF vs 15-azaEpoB)
[17] = Homo sapiens, K562, K562, read-out: IC50

SMILES | cross-resistance (fold of resistance vs parent cell line) [2] | cross-resistance (fold of resistance vs parent cell line) [3] | cross-resistance (fold of resistance vs parent cell line) [4] | IC50 [5] | IC50 [6] | IC50 [8, 15] | IC50 [9] | IC50 [10] | IC50 [11] | Therapeutic Effect Rank Order [12, 16] | IC50 (UL-3-B/Taxol [14]) | IC50 [1] | IC50 [2] | IC50 ([3]; Homo sapiens, CCRF-CEM, 72 h) | IC50 ([4]; CCRF-CEM, 72 h) | IC50 [7, 17] | IC50 ([8]; MCF-7) | Lowest Average Tumor Size (T/C) ([12]; K562, dEpoB 30 mg/kg) | Tumor Disappearance ([12]; K562, dEpoB 30 mg/kg) | other results
C/C(=C\c1csc(C)n1)C1C[C@@H]2O[C@]2(C)CCC[C@H](C)[C@H](O)[C@@H](C)C(=O)C(C)(C)C(O)CC(=O)N1 (stereo partly shown) [aza-EpoB, aza-epothilone B] | 81.4 x | 1423 x | 18.6 x | 2.5 nM | 3.2 nM | 4.3 nM | 2.4 nM | 42 nM | 16 nM | dEpoF>>>15-azaEpoB | 15 nM | – | – | – | – | – | – | – | – | IC50 ([1]; Homo sapiens, read-out: IC50): 2.1 nM; IC50 ([2]; read-out: IC50): 171 nM; IC50 ([3]; Homo sapiens, CCRF-CEM/VBL100, 72 h, read-out: IC50): 2990 nM; cross-resistance (fold of resistance vs parent cell line) ([4]; listed as 15-aza-EpoB): 118.6 x; IC50 ([4]; CCRF-CEM/VM1, 72 h, read-out: IC50): 39 nM; IC50 ([7]; K562, listed as 15-aza-EpoB, read-out: IC50): 60 nM; IC50 ([7]; K562, read-out: IC50): 4 nM; therapeutic effect on tumor growth ([12]; K562, aza-EpoB 6 mg/kg Q2D×6, 6 h-i.v. infusion (FIG. 34)): inhibited tumor growth but did not lead to a reduction in the size of the tumor; therapeutic effect on tumor growth ([12]; K562, aza-EpoB 6 mg/kg Q2D×6, 6 h-i.v. infusion (FIG. 34), listed as azaEpoB): strongly suppressed tumor growth but did not shrink the tumor; cross-resistance (fold of resistance vs parent cell line) (UL-3-B/Taxol [13]): 0.015[12.5] x
C/C1=C/C[C@@H](/C(C)=C/c2csc(CO)n2)OC(=O)C[C@H](O)C(C)(C)C(=O)[C@H](C)[C@@H](O)[C@@H](C)CCC1 [dEpoF, 12,13-Desoxyepothilone F] | 2.0 x | 17.4 x | 1.8 x | 0.7 nM | 1.4 nM | 6.9 nM | 4.2 nM | 11.9 nM | 5.1 nM | dEpoF>>>15-azaEpoB | 6.7 nM | 2.7 nM | 5.3 nM | 47 nM | 4.9 nM | 2.1 nM | 10 nM | – | – | potency relative to dEpoB (times less potent) [1]: slightly less potent than dEpoB; tumor free mice on day 76 ([12]; K562, aza-EpoB 6 mg/kg then dEpoF 30 mg/kg, n=3): all three mice were tumor free; therapeutic effect on tumor growth ([12]; K562, dEpoF 30 mg/kg Q2D×6 in the same mice after aza-EpoB, tumor near 500 mm^3 (FIG. 34)): readily induced reduction in the size of the tumor to the point of remission; also recorded: The tumor mass eventually disappeared three weeks later
CC(=O)O[C@H]1C(=O)[C@@]2(C)[C@H]([C@H](OC(=O)c3ccccc3)[C@]3(O)C[C@H](OC(=O)[C@H](O)[C@@H](NC(=O)c4ccccc4)c4ccccc4)C(C)=C1C3(C)C)[C@]1(OC(C)=O)CO[C@@H]1C[C@@H]2O [Taxol, paclitaxel, reference compound] | – | – | – | 1.1 nM | 1.6 nM | 2.4 nM | 39.4 nM | 28 nM | 3.8 nM | – | – | 1.2 nM | – | – | – | – | – | 0.18 | 0/6 | IC50 ([3]; CCRF-CEM/VBL100, 72 h): 5170 nM; IC50 ([7]; Homo sapiens, K562, read-out: IC50): 2.9 nM; IC50 (UL-3-B/Taxol [13]; UL-3-B/Taxol): 13.4 nM
C/C1=C/C[C@@H](/C(C)=C/c2csc(C)n2)OC(=O)C[C@H](O)C(C)(C)C(=O)[C@H](C)[C@@H](O)[C@@H](C)CCC1 [dEpoB, 12,13-desoxyepothilone B] | 1.7 x and 1.2 x | – | 1.5 x | 3.1 nM | 4.8 nM | 4 nM | 22.1 nM | 20.9 nM | 3.5 nM | – | 7 nM | 7.4 nM | 16.2 nM | 17 nM | 14 nM | 3.6 nM | 3.8 nM | 0 | 5/5 | IC50 ([1]; Homo sapiens, 72 h): 9.5 nM; IC50 ([7]; K562): 6.9 nM; Therapeutic Effect Rank Order ([12]; K562, i.v. infusion, FIG. 3 & 4): dEpoB>>>VBL> Taxol> Adriamycin; therapeutic effect of single course ([12]; K562, single course Q2D×3, dEpoB 30 mg/kg (FIG. 37)): disappearance of K562 xenografts for four weeks; therapeutic effect ([12]; K562, dEpoB 30 mg/kg, Taxol 20 mg/kg 6 hr i.v. infusion, Adriamycin 3 mg/kg, vinblastine 2.5 mg/kg i.v., every other day from day 20 (FIG. 36)): Complete remission; tumor size after treatment ([12]; K562 tumor as large as 880 mm^3 after paclitaxel, then dEpoB 30 mg/kg (Q2D×3)×3): less than 20 mm^3
